Test results published in article PMC11369081, “Molecular mechanism of prolactin-releasing peptide recognition and signaling via its G protein-coupled receptor” (Cell Discovery, 2024).
Peptide text beside a SMILES is read from it.

How the values were obtained:
Format in all cases: cell-based
PrRPR P142A = target: T1, PrRPR P142A (Homo sapiens, UniProt P49683, P142A); experiment: BRET2 Gq dissociation, P142A; settings: P142A (3.33), Gq-coupling, AD293 cells; mean ± S.E.M., n = 3; P <0.0001 vs WT; read-out: BRET2 pEC50 (converted)
T1 construct: expressed in transfected cells; host or cells: AD293 cells
Procedure: (§1) AD293 cells (Agilent) were propagated in Dulbecco’s Modified Eagle Medium (DMEM, Thermo Fisher Scientific), enriched with 10% fetal bovine serum (FBS, Thermo Fisher Scientific), and maintained at 37 °C in a 5% CO2 environment. Cells were then seeded in 6-well dishes at a density of 130,000–150,000 cells per mL and allowed to incubate overnight. On the next day, cells were transfected with plasmids at a 1:1:1:1 ratio for receptor:Gα-RLuc8:Gβ:Gγ-GFP2[52]. PEI MAX 40 K (BIOHUB) was utilized to form complex with the plasmids at a ratio of 3 µL PEI per µg of plasmids, in OptiMEM (Gibco-Thermo Fisher Scientific) at a concentration of 10 ng plasmids per µL OptiMEM. After 24 h of incubation, the culture was harvested by centrifugation with PBS. The cell suspension was then allocated into a white 384-well plate at a volume of 30 µL per well, followed by the addition of 10 µL of freshly prepared 50 µM coelenterazine 400a (Yeasen). […] Plates were subsequently read in a BioTek Synergy H1 microplate reader (BioTek) equipped with 395 nm (RLuc8-coelenterazine 400a) and 510 nm (GFP2) emission filters. BRET2 ratios were calculated as the ratio of the GFP2 emission to RLuc8 emission. […]
(§2) Supplementary Fig. S4 | Effects of mutations in the ligand-binding pocket and G protein intereface of Gq coupled PrRPR by BRET2 assay. […] BRET2 assay signals were measured after stimulation with PrRP20. […]

PrRPR D302A [1] = target: T2, PrRPR D302A (Homo sapiens, UniProt P49683, D302A); experiment: BRET2 Gq dissociation, D302A; settings: D302A (6.59), Gq-coupling, AD293 cells; mean ± S.E.M., n = 3; P <0.0001 vs WT; read-out: BRET2 pEC50 (converted)
T2 construct: Flag; expressed in transfected cells; host or cells: AD293 cells
Procedure: as §1, §2

PrRPR L229A = target: T3, PrRPR L229A (Homo sapiens, UniProt P49683, L229A); experiment: BRET2 Gi dissociation, L229A; settings: L229A (5.42), Gi-coupling, AD293 cells; mean ± S.E.M., n = 3; P <0.0001 vs WT; read-out: BRET2 pEC50 (converted)
T3 construct: Flag; expressed in transfected cells; host or cells: AD293 cells
Procedure: (§3) AD293 cells (Agilent) were propagated in Dulbecco’s Modified Eagle Medium (DMEM, Thermo Fisher Scientific), enriched with 10% fetal bovine serum (FBS, Thermo Fisher Scientific), and maintained at 37 °C in a 5% CO2 environment. Cells were then seeded in 6-well dishes at a density of 130,000–150,000 cells per mL and allowed to incubate overnight. On the next day, cells were transfected with plasmids at a 1:1:1:1 ratio for receptor:Gα-RLuc8:Gβ:Gγ-GFP2[52]. PEI MAX 40 K (BIOHUB) was utilized to form complex with the plasmids at a ratio of 3 µL PEI per µg of plasmids, in OptiMEM (Gibco-Thermo Fisher Scientific) at a concentration of 10 ng plasmids per µL OptiMEM. After 24 h of incubation, the culture was harvested by centrifugation with PBS. The cell suspension was then allocated into a white 384-well plate at a volume of 30 µL per well, followed by the addition of 10 µL of freshly prepared 50 µM coelenterazine 400a (Yeasen). Following a 15-min equilibration period, cells were treated with 10 µL of ligand for an additional 5 min. Plates were subsequently read in a BioTek Synergy H1 microplate reader (BioTek) equipped with 395 nm (RLuc8-coelenterazine 400a) and 510 nm (GFP2) emission filters. BRET2 ratios were calculated as the ratio of the GFP2 emission to RLuc8 emission. Data were normalized to the baseline response of the ligand. […]

PrRPR T233A = target: T4, PrRPR T233A (Homo sapiens, UniProt P49683, T233A); experiment: BRET2 Gi dissociation, T233A; settings: T233A (5.46), Gi-coupling, AD293 cells; mean ± S.E.M., n = 3; P <0.0001 vs WT; read-out: BRET2 pEC50 (converted)
T4 construct: Flag; expressed in transfected cells; host or cells: AD293 cells
Procedure: as §3

PrRPR F313A = target: T5, PrRPR F313A (Homo sapiens, UniProt P49683, F313A); experiment: BRET2 Gi dissociation, F313A; settings: F313A (7.31), Gi-coupling, AD293 cells; mean ± S.E.M., n = 3; P <0.0001 vs WT; read-out: BRET2 pEC50 (converted)
T5 construct: Flag; expressed in transfected cells; host or cells: AD293 cells
Procedure: as §3

PrRPR V145A = target: T6, PrRPR V145A (Homo sapiens, UniProt P49683, V145A); experiment: BRET2 Gq dissociation, V145A; settings: V145A (3.36), Gq-coupling, AD293 cells; mean ± S.E.M., n = 3; P <0.0001 vs WT; read-out: BRET2 pEC50 (converted)
T6 construct: expressed in transfected cells; host or cells: AD293 cells
Procedure: as §1, §2

PrRPR E212A = target: T7, PrRPR E212A (Homo sapiens, UniProt P49683, E212A); experiment: BRET2 Gi dissociation, E212A; settings: E212A (45.51), Gi-coupling, AD293 cells; mean ± S.E.M., n = 3; P <0.0001 vs WT; read-out: BRET2 pEC50 (converted)
T7 construct: expressed in transfected cells; host or cells: AD293 cells
Procedure: as §3

PrRPR D302A [2] = target: T2, PrRPR D302A; experiment: BRET2 Gi dissociation, D302A; settings: D302A (6.59), Gi-coupling, AD293 cells; mean ± S.E.M., n = 3; P <0.0001 vs WT; read-out: BRET2 pEC50 (converted)
Procedure: as §3

PrRPR Y225A = target: T8, PrRPR Y225A (Homo sapiens, UniProt P49683, Y225A); experiment: BRET2 Gi dissociation, Y225A; settings: Y225A (5.38), Gi-coupling, AD293 cells; mean ± S.E.M., n = 3; P <0.0001 vs WT; read-out: BRET2 pEC50 (converted)
T8 construct: Flag; expressed in transfected cells; host or cells: AD293 cells
Procedure: as §3

T2 sequence (P49683 whole entry D302A): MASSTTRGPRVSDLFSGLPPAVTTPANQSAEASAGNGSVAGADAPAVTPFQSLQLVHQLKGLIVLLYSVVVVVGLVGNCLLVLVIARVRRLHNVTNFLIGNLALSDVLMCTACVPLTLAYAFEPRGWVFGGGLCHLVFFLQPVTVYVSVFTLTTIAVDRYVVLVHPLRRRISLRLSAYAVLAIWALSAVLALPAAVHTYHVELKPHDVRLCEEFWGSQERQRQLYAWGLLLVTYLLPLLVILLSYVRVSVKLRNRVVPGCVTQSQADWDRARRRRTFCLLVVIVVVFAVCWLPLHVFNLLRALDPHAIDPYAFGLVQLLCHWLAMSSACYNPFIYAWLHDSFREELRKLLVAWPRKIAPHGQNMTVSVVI
T4 sequence (P49683 whole entry T233A): as the sequence (P49683 whole entry D302A) above, with T233A, A302D counted along it
T6 sequence (P49683 whole entry V145A): as the sequence (P49683 whole entry D302A) above, with V145A, A302D counted along it
T1 sequence (P49683 whole entry P142A): as the sequence (P49683 whole entry D302A) above, with P142A, A302D counted along it
T7 sequence (P49683 whole entry E212A): as the sequence (P49683 whole entry D302A) above, with E212A, A302D counted along it
T3 sequence (P49683 whole entry L229A): as the sequence (P49683 whole entry D302A) above, with L229A, A302D counted along it
T5 sequence (P49683 whole entry F313A): as the sequence (P49683 whole entry D302A) above, with A302D, F313A counted along it
T8 sequence (P49683 whole entry Y225A): as the sequence (P49683 whole entry D302A) above, with Y225A, A302D counted along it

- EC50 (PrRPR P142A): 4.79 nM
- EC50 (PrRPR D302A [1]): 151 nM
- EC50 (PrRPR L229A): 85.1 nM
- EC50 (PrRPR T233A): 18.6 nM
- EC50 (PrRPR F313A): 14.8 nM
- EC50 (PrRPR V145A): 4.79 nM
- EC50 (PrRPR E212A): 398 nM
- EC50 (PrRPR D302A [2]): 1120 nM
- EC50 (PrRPR Y225A): 550 nM
SMILES: CC[C@H](C)[C@H](NC(=O)CNC(=O)[C@H](CCCNC(=N)N)NC(=O)[C@H](CO)NC(=O)[C@H](C)NC(=O)[C@H](Cc1ccc(O)cc1)NC(=O)[C@H](Cc1c[nH]c2ccccc12)NC(=O)[C@H](C)NC(=O)[C@@H]1CCCN1C(=O)[C@H](CC(N)=O)NC(=O)[C@@H](NC(=O)[C@H](CC(=O)O)NC(=O)[C@@H]1CCCN1C(=O)[C@@H](N)[C@@H](C)O)[C@@H](C)CC)C(=O)N[C@@H](CCCNC(=N)N)C(=O)N1CCC[C@H]1C(=O)N[C@H](C(=O)NCC(=O)N[C@@H](CCCNC(=N)N)C(=O)N[C@@H](Cc1ccccc1)C(N)=O)C(C)C [PrRP20] (H-TPDINPAWYASRGIRPVGRF-NH2)
